Here are results for five compounds from US20230159467A1, “NOVEL COMPOUNDS USEFUL IN THE TREATMENT AND/OR PREVENTION OF A DISEASE, DISORDER OR CONDITION ASSOCIATED WITH ANGIOTENSIN II” (Vicore Pharma AB, priority 2020, published 2023).

For one data set, the target named is T1, CYP1A (Homo sapiens, UniProt P05177).
T1 sequence (P05177 1-516): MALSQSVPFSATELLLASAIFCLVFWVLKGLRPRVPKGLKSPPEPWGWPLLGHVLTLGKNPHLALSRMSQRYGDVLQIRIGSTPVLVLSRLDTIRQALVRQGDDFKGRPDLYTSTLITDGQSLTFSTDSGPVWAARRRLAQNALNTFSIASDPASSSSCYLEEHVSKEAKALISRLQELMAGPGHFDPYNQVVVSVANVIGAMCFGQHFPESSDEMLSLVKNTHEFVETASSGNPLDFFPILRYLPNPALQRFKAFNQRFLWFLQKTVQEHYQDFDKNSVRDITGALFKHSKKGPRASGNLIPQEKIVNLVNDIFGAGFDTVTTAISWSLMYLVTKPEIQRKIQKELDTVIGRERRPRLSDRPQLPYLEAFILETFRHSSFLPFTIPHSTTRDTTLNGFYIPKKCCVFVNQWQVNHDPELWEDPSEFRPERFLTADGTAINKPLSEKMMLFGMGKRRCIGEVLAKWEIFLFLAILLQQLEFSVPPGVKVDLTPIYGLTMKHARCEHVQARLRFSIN
Kind of data set: CYP450 inhibition assay, pooled human liver microsomes, phenacetin substrate. Particulars: for CYP 450 Inhibition CYP1A: at 10 μM; for inhibition at 10 min, 10 µM: both, human, pooled human liver microsomes, pH 7.4, probe phenacetin. (In general: Liver microsomes are vesicles of endoplasmic reticulum, rich in cytochrome P450 enzymes.)

A further data set relates to CYP3A. Briefly: CYP450 inhibition assay, pooled human liver microsomes, midazolam substrate. Particulars: for CYP 450 Inhibition CYP3A midazolam: at 10 μM, midazolam substrate; for inhibition at 10 min, 10 µM: both, human, pooled human liver microsomes, pH 7.4, probe midazolam.
Data set [1] is described as follows: Kinetic solubility in PBS pH 7.4. The data set is classed as physicochemical. Particulars: Dulbecco's PBS buffer, aqueous buffer, kinetic from dmso stock; PBS pH 7.4, 24 h room temperature, 2% DMSO. On the procedure: Kinetic solubility. Dulbecco's PBS buffer was used (NaCl 137 mM, KCl 2.7 mM, Na2HPO4 8.1 mM, KH2PO4 1.5 mM with pH 7.4). The test compound is prepared at 200 μM in the PBS buffer from a 10 mM DMSO stock solution. The final DMSO concentration is 2%. The buffer samples were mixed thoroughly followed by incubation at room temperature for 24 h. At the end of the incubation, the buffer samples were centrifuged and supernatants were then injected for the HPLC analysis. A calibration standard of the test compound was prepared at 200 μM in methanol/water (3/2, v/v) from a 10 mM DMSO stock solution on the day of HPLC analysis. The analysis was conducted by HPLC-UV/VIS with photodiode array detection, with monitoring at 205, 230, 260, and 300 nm wavelengths. The HPLC system consisted of a C18 column using a gradient of A and B (A=12 mM ammonium formate, 6 mM formic acid in water, pH 4.0, B=6 mM ammonium formate, 3 mM formic acid acetonitrile/water (9/1, v/v)). Reference compounds used were metoprolol, rifampicin, ketoconazole, phenytoin, haloperidol, simvastatin, diethylstilbestrol, and tamoxifen, ranking from fully soluble (200 μM) to poorly soluble (<1μM). […] The range of the assay was approximately 0.5 μM to 200 μM. The chromatographic purity (%) was determined as the peak area of the principal peak relative to the total integrated peak areas in the HPLC chromatogram of the calibration standard.

Data set [2] is described as follows: Stability in human liver microsomes. The data set is classed as in vitro ADME. Particulars: half-life. The method in brief: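 Pooled liver microsomes (human mixed gender; male Sprague-Dawley rat; male CD-1 mouse) at final 0.1 mg/mL protein, compound 0.1 μM, 100 mM potassium phosphate pH 7.4, NADPH-initiated, sampled 0–60 min. Parent remaining by HPLC-MS/MS vs time zero; half-life from log-linear slope assuming first-order kinetics, plus Clint.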

Values after ≈ are worked out from the molar mass of the structure shown.

By kinetic solubility is commonly meant the concentration staying in solution when a stock, usually in DMSO, is diluted into the medium. A word on the inhibition: it is the drop in the measured response relative to a control, in per cent.

Turning to `COC(=O)NS(=O)(=O)c1sc(CC(C)C)nc1-c1ccc(Cn2ccnc2C(C)(C)C)cc1` [Example 3, Methyl ((4-(4-((2-(tert-butyl)-1H-imidazol-1-yl)methyl)phenyl)-2-isobutylthiazol-5-yl)sulfonyl) carbamate], at CYP1A, the “CYP 450 Inhibition CYP1A” value worked out at 8.4%. Moreover, the “CYP 450 Inhibition CYP3A midazolam” value with CYP3A worked out at 5.4%. This compound also came in with a solubility (kinetic) at 24 h in data set [1] of 195 µM (≈ 95.7 µg/mL). In addition, the “Stability in liver microsomes HLM” value in data set [2] is on record as above 60 min.

`COC(=O)NS(=O)(=O)c1ccc(CC(C)C)cc1-c1ccc(Cn2ccnc2C(C)(C)C)cc1` [Example 1A, Methyl ((4′-((2-(tert-butyl)-1H-imidazol-1-yl)methyl)-5-isobutyl-[1,1′-biphenyl]-2-yl)sulfonyl)carbamate]: the inhibition at 10 min, 10 µM on CYP1A stood at 11%; in the data set on CYP3A, 0%. Further, the kinetic solubility at 24 h in data set [1] worked out at 140 µM (≈ 67.7 µg/mL). Also, the “Stability in liver microsomes HLM” value in data set [2] was above 60 min.

`COC(=O)[N-]S(=O)(=O)c1ccc(CC(C)C)cc1-c1ccc(Cn2ccnc2C(C)(C)O)cc1.[K+]` [Example 8B, Potassium ((4′-((2-(2-hydroxypropan-2-yl)-1H-imidazol-1-yl)methyl)-5-isobutyl-[1,1′-biphenyl]-2-yl)sulfonyl)(methoxycarbonyl)amide]: the inhibition at 10 min, 10 µM at CYP1A came out at 5.7%; with CYP3A, 1.3%. Besides, the kinetic solubility at 24 h in data set [1] is above 200 µM. Besides, the “Stability in liver microsomes HLM” value in data set [2] is reported as above 60 min.

`CCCCOC(=O)NS(=O)(=O)c1sc(CC(C)C)nc1-c1ccc(Cn2ccnc2C(C)(C)C)cc1` [Example 4, Butyl ((4-(4-((2-(tert-butyl)-1H-imidazol-1-yl)methyl)phenyl)-2-isobutylthiazol-5-yl)sulfonyl) carbamate]: on CYP1A, the “CYP 450 Inhibition CYP1A” value is given as −7.3%. For the same compound, the “CYP 450 Inhibition CYP3A midazolam” value in the data set on CYP3A is on record as 24%. In addition, the kinetic solubility at 24 h in data set [1] turned out to be 180 µM (≈ 95.9 µg/mL). Moreover, the “Stability in liver microsomes HLM” value in data set [2] is on record as 45 min.

For the compound `CCCCOC(=O)[N-]S(=O)(=O)c1sc(CC(C)C)cc1-c1ccc(Cn2ccnc2C(C)(C)C)cc1.[K+]` [Example 11B, Potassium (butoxycarbonyl)((3-(4-((2-(tert-butyl)-1H-imidazol-1-yl)methyl)phenyl)-5-isobutylthiophen-2-yl)sulfonyl)amide], the inhibition at 10 min, 10 µM against CYP1A was 8.4%; in the data set with CYP3A, -5.1%. Also, the kinetic solubility at 24 h in data set [1] is above 200 µM. The “Stability in liver microsomes HLM” value in data set [2] came to 11 min.
